From ChEMBL document CHEMBL3885861, “Open TG-GATES”

Organism: Rattus norvegicus
Assay: Open TG-GATES - Regimen: Single
Format: toxicity, organism-based, Sprague-Dawley
Parameters: regimen Single, gender Male, age 6 weeks
Settings: in vivo, po, 50 mg/kg, route gavage, dose level Middle; for APTT / Bas / Eos / Fbg / Hb / Ht / Lym / MCHC / MCV / Mono / Neu / PT / Plat / RBC / Ret / WBC: tissue Blood; for KIDNEY_L / KIDNEY_R / KIDNEY_TOTAL: tissue Kidney; for LIVER: tissue Liver; for ALP / ALT / AST / BUN / CRE / Ca / Cl / DBIL / GLC / IP / K / LDH / Na / PL / RALB / TBIL / TC / TG / TP / gamma-GTP: tissue Plasma

C1CCC(C(CC2CCCCN2)C2CCCCC2)CC1 (centres undefined) [PERHEXILINE]
TERMINAL_BW (3 h): 207.9 g | APTT (3 h): 22 s | Bas (3 h): 0% | Eos (3 h): 0.8% | Fbg (3 h): 319.8 mg/dL | Hb (3 h): 13.6 g/dL | Ht (3 h): 40.9% | Lym (3 h): 77.6% | MCHC (3 h): 33.3% | MCV (3 h): 62.5 fL | Mono (3 h): 1.8% | Neu (3 h): 19% | PT (3 h): 15.7 s | Plat (3 h): 132.9 x10_4/uL | RBC (3 h): 656 x10_4/ul | Ret (3 h): 6.5% | WBC (3 h): 52.6 x10_2/uL | KIDNEY_L (3 h): 1 g | KIDNEY_R (3 h): 1 g | KIDNEY_TOTAL (3 h): 2 g | LIVER (3 h): 9.4 g | ALP (3 h): 1767.8 IU/L | ALT (3 h): 47.4 IU/L | AST (3 h): 72 IU/L | BUN (3 h): 10.8 mg/dL | CRE (3 h): 0.1 mg/dL | Ca (3 h): 10.8 mg/dL | Cl (3 h): 105 meq/L | DBIL (3 h): 0.004 mg/dL | GLC (3 h): 164.6 mg/dL | IP (3 h): 9.2 mg/dL | K (3 h): 4 meq/L | LDH (3 h): 190.6 IU/L | Na (3 h): 140.4 meq/L | PL (3 h): 140.2 mg/dL | RALB (3 h): 3.1 g/dL | TBIL (3 h): 0.012 mg/dL | TC (3 h): 73 mg/dL | TG (3 h): 65.8 mg/dL | TP (3 h): 5.7 g/dL | gamma-GTP (3 h): 0.8 IU/L | TERMINAL_BW (6 h): 216.9 g | APTT (6 h): 21.5 s | Bas (6 h): 0% | Eos (6 h): 1% | Fbg (6 h): 325.6 mg/dL | Hb (6 h): 13 g/dL | Ht (6 h): 38.7% | Lym (6 h): 72.8% | MCHC (6 h): 33.5% | MCV (6 h): 62.6 fL | Mono (6 h): 2.8% | Neu (6 h): 22.2% | PT (6 h): 15.7 s | Plat (6 h): 126.8 x10_4/uL | RBC (6 h): 619.8 x10_4/ul | Ret (6 h): 7.7% | WBC (6 h): 94.8 x10_2/uL | KIDNEY_L (6 h): 1.1 g | KIDNEY_R (6 h): 1 g | KIDNEY_TOTAL (6 h): 2.1 g | LIVER (6 h): 9.5 g | ALP (6 h): 1607.2 IU/L | ALT (6 h): 40.4 IU/L | AST (6 h): 69.8 IU/L | BUN (6 h): 11.4 mg/dL | CRE (6 h): 0.2 mg/dL | Ca (6 h): 10.9 mg/dL | Cl (6 h): 105.2 meq/L | DBIL (6 h): 0.006 mg/dL | GLC (6 h): 161 mg/dL | IP (6 h): 10.1 mg/dL | K (6 h): 4.5 meq/L | LDH (6 h): 182.6 IU/L | Na (6 h): 139 meq/L | PL (6 h): 137.8 mg/dL | RALB (6 h): 3 g/dL | TBIL (6 h): 0.014 mg/dL | TC (6 h): 69.2 mg/dL | TG (6 h): 81.6 mg/dL | TP (6 h): 5.6 g/dL | gamma-GTP (6 h): 1 IU/L | TERMINAL_BW (9 h): 203.5 g | APTT (9 h): 21 s | Bas (9 h): 0% | Eos (9 h): 0.6% | Fbg (9 h): 325.2 mg/dL | Hb (9 h): 13.1 g/dL | Ht (9 h): 39.1% | Lym (9 h): 76.2% | MCHC (9 h): 33.6% | MCV (9 h): 63.4 fL | Mono (9 h): 1.8% | Neu (9 h): 20.2% | PT (9 h): 15.5 s | Plat (9 h): 130 x10_4/uL | RBC (9 h): 617.6 x10_4/ul | Ret (9 h): 7.4% | WBC (9 h): 69.7 x10_2/uL | KIDNEY_L (9 h): 1 g | KIDNEY_R (9 h): 1 g | KIDNEY_TOTAL (9 h): 1.9 g | LIVER (9 h): 8.5 g | ALP (9 h): 1598.6 IU/L | ALT (9 h): 40.2 IU/L | AST (9 h): 69 IU/L | BUN (9 h): 11 mg/dL | CRE (9 h): 0.1 mg/dL | Ca (9 h): 10.8 mg/dL | Cl (9 h): 105.4 meq/L | DBIL (9 h): 0.002 mg/dL | GLC (9 h): 169.8 mg/dL | IP (9 h): 9.9 mg/dL | K (9 h): 4.1 meq/L | LDH (9 h): 238.2 IU/L | Na (9 h): 139.2 meq/L | PL (9 h): 137 mg/dL | RALB (9 h): 3 g/dL | TBIL (9 h): 0.018 mg/dL | TC (9 h): 78.6 mg/dL | TG (9 h): 39.4 mg/dL | TP (9 h): 5.6 g/dL | gamma-GTP (9 h): 1 IU/L | TERMINAL_BW (24 h): 220 g | APTT (24 h): 20.4 s | Bas (24 h): 0% | Eos (24 h): 1% | Fbg (24 h): 309.4 mg/dL | Hb (24 h): 13.5 g/dL | Ht (24 h): 40.3% | Lym (24 h): 82% | MCHC (24 h): 33.4% | MCV (24 h): 63.4 fL | Mono (24 h): 2% | Neu (24 h): 14% | PT (24 h): 15.6 s | Plat (24 h): 116.9 x10_4/uL | RBC (24 h): 635.4 x10_4/ul | Ret (24 h): 6.5% | WBC (24 h): 92.8 x10_2/uL | KIDNEY_L (24 h): 0.9 g | KIDNEY_R (24 h): 1 g | KIDNEY_TOTAL (24 h): 1.9 g | LIVER (24 h): 10.2 g | ALP (24 h): 1673.6 IU/L | ALT (24 h): 43.2 IU/L | AST (24 h): 72.8 IU/L | BUN (24 h): 15.4 mg/dL | CRE (24 h): 0.2 mg/dL | Ca (24 h): 10.7 mg/dL | Cl (24 h): 108 meq/L | DBIL (24 h): 0 mg/dL | GLC (24 h): 179.8 mg/dL | IP (24 h): 7.4 mg/dL | K (24 h): 4.4 meq/L | LDH (24 h): 240.6 IU/L | Na (24 h): 143.4 meq/L | PL (24 h): 146.4 mg/dL | RALB (24 h): 3.2 g/dL | TBIL (24 h): 0.01 mg/dL | TC (24 h): 72 mg/dL | TG (24 h): 117.2 mg/dL | TP (24 h): 5.6 g/dL | gamma-GTP (24 h): 1 IU/L
